Patent US20250122219A1 (priority 2023, published 2025)
Like-named read-outs stand apart in the source and are kept apart here.

Assays:
HIV-1 (IIIB) = test: Antiviral assay in MT-4 cells; format: cell-based
Outline: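 Read-out: CellTiter-Glo luminescence after 5 days at 37 °C, reflecting survival of MT-4 cells infected with HIV-1 IIIB (1:250 fresh stock dilution) versus mock-infected. Compounds serially diluted into RPMI with 10% FBS; AZT at 5 μM served as positive control.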

[1] = Cytotoxicity assay in MT-4 cells; format: cell-based; conditions: human; uninfected MT-4 cells, 5 days incubation, Cell Titer Glo; read-out: MT4 CC50
Outline: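 Viability read by Cell Titer Glo luminescence after 5 days at 37 °C. MT-4 cells, not infected, in complete RPMI (10% FBS), received compound dilution series. Base cytotoxicity set with […] puromycin.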

[2] = Human immunodeficiency virus 1, MT4, 120 h, HIV-1 IIIB in MT-4 cells, 5 days incubation, Cell Titer Glo, read-out: MT4 EC50

Structure (SMILES)	EC50 (HIV-1 (IIIB); [2])	CC50 at 5 days [1]	EC50 (HIV-1 (IIIB); Human immunodeficiency virus 1, IIIB, MT4, 120 h, read-out: MT4 EC50 (nM))
CCCCCCC(=O)Oc1c2n(cc(C(=O)NCc3ccc(F)cc3F)c1=O)[C@@H]1CN(C2=O)[C@@H](C)CC[C@]12CC(OC)=NO2 [Example 38, (3′S,5S,7′R)-10′-((2,4-difluorobenzyl)carbamoyl)-3-methoxy-3′-methyl-1′,11′-dioxo-1′,4′,5′,11′-tetrahydro-3′H,4H,7′H-spiro[isoxazole-5,6′-[2,7]methanopyrido[1,2-a][1,4]diazonin]-12′-yl heptanoate]	0.331 nM	25700 nM	
CCCCCCCCCCCCCC(=O)Oc1c2n(cc(C(=O)NCc3ccc(F)cc3F)c1=O)[C@@H]1CN(C2=O)[C@@H](C)CC[C@]12CC(OC)=NO2 [Example 26, (3′S,5S,7′R)-10′-((2,4-difluorobenzyl)carbamoyl)-3-methoxy-3′-methyl-1′,11′-dioxo-1′,4′,5′,11′-tetrahydro-3′H,4H,7′H-spiro[isoxazole-5,6′-[2,7]methanopyrido[1,2-a][1,4]diazonin]-12′-yl tetradecanoate]	2.62 nM	22600 nM	
CCCCCCCCCCCCCCCCCCOC(=O)Oc1c2n(cc(C(=O)NCc3ccc(F)cc3F)c1=O)[C@@H]1CN(C2=O)[C@@H](C)CC[C@]12CC(OC)=NO2 [Example 147, (3′S,5S,7′R)-10′-((2,4-difluorobenzyl)carbamoyl)-3-methoxy-3′-methyl-1′,11′-dioxo-1′,4′,5′,11′-tetrahydro-3′H,4H,7′H-spiro[isoxazole-5,6′-[2,7]methanopyrido[1,2-a][1,4]diazonin]-12′-yl octadecyl carbonate]	7.16 nM	≥ 50000 nM	
COC[C@@H](C)OC(=O)OCOc1c2n(cc(C(=O)NCc3ccc(F)cc3F)c1=O)[C@@H]1CN(C2=O)[C@@H](C)CC[C@]12CC(OC)=NO2 [Example 214, (((3′S,5S,7′R)-10′-((2,4-difluorobenzyl)carbamoyl)-3-methoxy-3′-methyl-1′,11′-dioxo-1′,4′,5′,11′-tetrahydro-3′H,4H,7′H-spiro[isoxazole-5,6′-[2,7]methanopyrido[1,2-a][1,4]diazonin]-12′-yl)oxy)methyl ((R)-1-methoxypropan-2-yl) carbonate]	6.25 nM	≥ 50000 nM	
CCCCCCCCC(=O)OCOc1c2n(cc(C(=O)NCc3ccc(F)cc3F)c1=O)[C@@H]1CN(C2=O)[C@@H](C)CC[C@]12CC(C)=NO2 [Example 98, (((3′S,5S,7′R)-10′-((2,4-difluorobenzyl)carbamoyl)-3,3′-dimethyl-1′,11′-dioxo-1′,4′,5′,11′-tetrahydro-3′H,4H,7′H-spiro[isoxazole-5,6′-[2,7]methanopyrido[1,2-a][1,4]diazonin]-12′-yl)oxy)methyl nonanoate]	3.87 nM	≥ 50000 nM	
COC1=NO[C@@]2(CC[C@H](C)N3C[C@H]2n2cc(C(=O)NCc4ccc(F)cc4F)c(=O)c(OC(=O)OC(C)C)c2C3=O)C1 [Example 30, (3′S,5S,7′R)-10′-((2,4-difluorobenzyl)carbamoyl)-3-methoxy-3′-methyl-1′,11′-dioxo-1′,4′,5′,11′-tetrahydro-3′H,4H,7′H-spiro[isoxazole-5,6′-[2,7]methanopyrido[1,2-a][1,4]diazonin]-12′-yl isopropyl carbonate]		12600 nM	1.3 nM
COC1=NO[C@@]2(CC[C@H](C)N3C[C@H]2n2cc(C(=O)NCc4ccc(F)cc4F)c(=O)c(OC(=O)CCC4CCCC4)c2C3=O)C1 [Example 58, (3′S,5S,7′R)-10′-((2,4-difluorobenzyl)carbamoyl)-3-methoxy-3′-methyl-1′,11′-dioxo-1′,4′,5′,11′-tetrahydro-3′H,4H,7′H-spiro[isoxazole-5,6′-[2,7]methanopyrido[1,2-a][1,4]diazonin]-12′-yl 3-cyclopentylpropanoate]	0.284 nM	23900 nM	
CCCCCOC(=O)Oc1c2n(cc(C(=O)NCc3ccc(F)cc3F)c1=O)[C@@H]1CN(C2=O)[C@@H](C)CC[C@]12CC(C)=NO2 [Example 129, (3′S,5S,7′R)-10′-((2,4-difluorobenzyl)carbamoyl)-3,3′-dimethyl-1′,11′-dioxo-1′,4′,5′,11′-tetrahydro-3′H,4H,7′H-spiro[isoxazole-5,6′-[2,7]methanopyrido[1,2-a][1,4]diazonin]-12′-yl pentyl carbonate]	1.78 nM	21700 nM	
CCCCOC(=O)Oc1c2n(cc(C(=O)NCc3ccc(F)cc3F)c1=O)[C@@H]1CN(C2=O)[C@@H](C)CC[C@]12CC(C)=NO2 [Example 127, butyl butyl ((3′S,5S,7′R)-10′-((2,4-difluorobenzyl)carbamoyl)-3,3′-dimethyl-1′,11′-dioxo-1′,4′,5′,11′-tetrahydro-3′H,4H,7′H-spiro[isoxazole-5,6′-[2,7]methanopyrido[1,2-a][1,4]diazonin]-12′-yl) carbonate]	0.201 nM	13300 nM	
CC/C=C\C/C=C\C/C=C\C/C=C\C/C=C\CCCC(=O)Oc1c2n(cc(C(=O)NCc3ccc(F)cc3F)c1=O)[C@@H]1CN(C2=O)[C@@H](C)CC[C@]12CC(OC)=NO2 [Example 69, (3′S,5S,7′R)-10′-((2,4-difluorobenzyl)carbamoyl)-3-methoxy-3′-methyl-1′,11′-dioxo-1′,4′,5′,11′-tetrahydro-3′H,4H,7′H-spiro[isoxazole-5,6′-[2,7]methanopyrido[1,2-a][1,4]diazonin]-12′-yl (5Z,8Z,11Z,14Z,17Z)-icosa-5,8,11,14,17-pentaenoate]	0.54 nM	42200 nM	
COC1=NO[C@@]2(CC[C@H](C)N3C[C@H]2n2cc(C(=O)NCc4ccc(F)cc4F)c(=O)c(OCOC(=O)OCCCCCCCC(C)C)c2C3=O)C1 [Example 212, (((3′S,5S,7′R)-10′-((2,4-difluorobenzyl)carbamoyl)-3-methoxy-3′-methyl-1′,11′-dioxo-1′,4′,5′,11′-tetrahydro-3′H,4H,7′H-spiro[isoxazole-5,6′-[2,7]methanopyrido[1,2-a][1,4]diazonin]-12′-yl)oxy)methyl (8-methylnonyl) carbonate]	8.6 nM	≥ 50000 nM	
CCCCCCC(=O)OCOc1c2n(cc(C(=O)NCc3ccc(F)cc3F)c1=O)[C@@H]1CN(C2=O)[C@@H](C)CC[C@]12CC(OC)=NO2 [Example 93, (((3′S,5S,7′R)-10′-((2,4-difluorobenzyl)carbamoyl)-3-methoxy-3′-methyl-1′,11′-dioxo-1′,4′,5′,11′-tetrahydro-3′H,4H,7′H-spiro[isoxazole-5,6′-[2,7]methanopyrido[1,2-a][1,4]diazonin]-12′-yl)oxy)methyl heptanoate]	2.63 nM	19500 nM	

The next lines start with results.

EC50 (HIV-1 (IIIB); [2])	Structure (SMILES)	CC50 at 5 days [1]	EC50 (HIV-1 (IIIB); Human immunodeficiency virus 1, IIIB, MT4, 120 h, read-out: MT4 EC50 (nM))
3.56 nM	CC1=NO[C@@]2(CC[C@H](C)N3C[C@H]2n2cc(C(=O)NCc4ccc(F)cc4F)c(=O)c(OCOC(=O)OCCCC(C)C)c2C3=O)C1 [Example 203, (((3′S,5S,7′R)-10′-((2,4-difluorobenzyl)carbamoyl)-3,3′-dimethyl-1′,11′-dioxo-1′,4′,5′,11′-tetrahydro-3′H,4H,7′H-spiro[isoxazole-5,6′-[2,7]methanopyrido[1,2-a][1,4]diazonin]-12′-yl)oxy)methyl (4-methylpentyl) carbonate]	26400 nM	
2 nM	CC1=NO[C@@]2(CC[C@H](C)N3C[C@H]2n2cc(C(=O)NCc4ccc(F)cc4F)c(=O)c(OC(=O)OCCCCCC(C)C)c2C3=O)C1 [Example 156, (3′S,5S,7′R)-10′-((2,4-difluorobenzyl)carbamoyl)-3,3′-dimethyl-1′,11′-dioxo-1′,4′,5′,11′-tetrahydro-3′H,4H,7′H-spiro[isoxazole-5,6′-[2,7]methanopyrido[1,2-a][1,4]diazonin]-12′-yl (6-methylheptyl) carbonate]	14700 nM	
0.594 nM	COC1=NO[C@@]2(CC[C@H](C)N3C[C@H]2n2cc(C(=O)NCc4ccc(F)cc4F)c(=O)c(OCOC(=O)OCCCCCC(C)C)c2C3=O)C1 [Example 208, (((3′S,5S,7′R)-10′-((2,4-difluorobenzyl)carbamoyl)-3-methoxy-3′-methyl-1′,11′-dioxo-1′,4′,5′,11′-tetrahydro-3′H,4H,7′H-spiro[isoxazole-5,6′-[2,7]methanopyrido[1,2-a][1,4]diazonin]-12′-yl)oxy)methyl (6-methylheptyl) carbonate]	21300 nM	
0.262 nM	CCCCCCOC(=O)OCOc1c2n(cc(C(=O)NCc3ccc(F)cc3F)c1=O)[C@@H]1CN(C2=O)[C@@H](C)CC[C@]12CC(C)=NO2 [Example 181, (((3′S,5S,7′R)-10′-((2,4-difluorobenzyl)carbamoyl)-3,3′-dimethyl-1′,11′-dioxo-1′,4′,5′,11′-tetrahydro-3′H,4H,7′H-spiro[isoxazole-5,6′-[2,7]methanopyrido[1,2-a][1,4]diazonin]-12′-yl)oxy)methyl hexyl carbonate]	14700 nM	
3.87 nM	CC1=NO[C@@]2(CC[C@H](C)N3C[C@H]2n2cc(C(=O)NCc4ccc(F)cc4F)c(=O)c(OCOC(=O)OCC(C)C)c2C3=O)C1 [Example 199, (((3′S,5S,7′R)-10′-((2,4-difluorobenzyl)carbamoyl)-3,3′-dimethyl-1′,11′-dioxo-1′,4′,5′,11′-tetrahydro-3′H,4H,7′H-spiro[isoxazole-5,6′-[2,7]methanopyrido[1,2-a][1,4]diazonin]-12′-yl)oxy)methyl isobutyl carbonate]	15500 nM	
